Test results from paper PMC8149832, “A comparative study of synthetic winged peptides for absolute protein quantification” (Scientific Reports, 2021).
Ends that are not written are not given here.

Target: T1, Trypsin (Sus scrofa, UniProt P00761)
T1 construct: purchased Promega V5280
Assay: Trypsin digestion efficiency / kinetics of signature peptide formation
Type: biochemical
Conditions: trypsin 1:20 w/w, 37 °C, SRM peak area; for formation of signature peptide by trypsin digestion, rate or yield (in words): AmBic/SDC buffer with 5% ACN reconstitution, 0.5-24 h, Figs. 4, S3, S4; for time to plateau of signature peptide formed from C-terminal extended SIL peptide (in words): AmBic/SDC buffer, quenched at 0.5, 2, 4, 8, 16, 24 h, n = 3, Fig. S4
Method: HSA concentration in the pooled serum sample diluted twofold with ultrapure water was determined using BCG albumin assay kit on the 96-well plate format (cat. #MAK124-1KT, Sigma-Aldrich). The seven-point calibration series was prepared using HSA standard (5 to 50 mg/mL) in ultrapure water. The absorption spectrophotometry was measured at 620 nm wavelength. The pooled serum sample (10 µL), diluted 2000-fold using 50 mM AmBic with 5 mg/mL SDC (AmBic/SDC buffer) to HSA concentration of approx. 500 nM and transferred into a clean microcentrifuge tube. After adding SIL protein or peptide internal standard (10 µL), the sample was reduced (adding 1 µL of 200 mM DTT stock solution, 95 °C, 10 min), cooled down to ambient temperature, and cysteine residues were alkylated (adding 1 µL of 400 mM IAAstock solution, ambient temperature, 30 min in the dark). Trypsin was added to the sample in a 1:20 ratio (w/w enzyme to total protein content), and samples were incubated (37 °C, 16 h) in microcentrifuge tubes sealed with a paraffin film. The enzymatic proteolysis was quenched at different time points (0.5, 2, 4, 8, 16, and 24 h; n = 3) to optimize the incubation time. The proteolysis was quenched by adding 200 µL of 2% FA in water (pH < 3), and tryptic peptides were desalted using a mixed-mode SPE cartridge in a 96-well plate format (Oasis PRIME HLB, Waters, Milford, MA). Samples were loaded onto the SPE cartridge, washed (300 µL water with 2% FA, pH < 3), eluted (50% ACN; 2% FA in water, pH < 3), and the extract was dried in a vacuum concentrator centrifuge (Savant SPD121 P SpeedVac, Thermo Fisher). Samples were dissolved (10 µL) in 5% ACN with 0.1% FA in water before UHPLC-SRM analysis. […]
The enzymatic digestion efficiency severely affects the quantitative performance of a protein assay[10],[11]. […] Overnight trypsin digestion is routinely used for reproducible proteolytic yields as the peptide's stability and formation efficiency may vary[11]. Maximal trypsinization yields of some signature peptides are reached within two hours[10],[16], while other peptides require longer digestion time[30]. We optimized the trypsin digestion duration to ensure reproducible signature peptide yields needed for a quantitative protein assay. We studied the signature peptide formation from light HSA protein and each version of SIL-Ex peptides after 0.5, 2, 4, 8, 16, and 24 h of incubation. SRM peak areas of light and heavy signature peptides and determined HSA protein concentrations (nM) were plotted against incubation time (h), comparing the efficiency of light HSA proteolysis with SIL-Ex peptides (Figs. 4, S3 and S4). The formation of HSA signature peptides LVNE, SLHT, DDNP, YLYE, and QTAL was compared for SIL-TCT, SIL-ExC5, SIL-ExC3N3, and SIL-ExC5N5 peptides (Fig. 4). Besides, the formation of HSA signature peptides DLGE, LCTV, LVTD, TYET, and FQNA was compared for SIL-TCT and SIL-ExC5 peptides only (Fig. S4).

T1 sequence (P00761 9-231): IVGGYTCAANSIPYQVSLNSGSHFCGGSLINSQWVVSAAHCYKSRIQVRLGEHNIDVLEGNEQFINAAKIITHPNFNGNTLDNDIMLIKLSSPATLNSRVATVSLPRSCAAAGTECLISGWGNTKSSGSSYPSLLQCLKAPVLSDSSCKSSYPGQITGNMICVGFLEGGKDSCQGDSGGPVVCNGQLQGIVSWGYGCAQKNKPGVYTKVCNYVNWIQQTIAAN

| Substance | formation of signature peptide by trypsin digestion, rate or yield (in words) | time to plateau of signature peptide formed from C-terminal extended SIL peptide (in words) |
| --- | --- | --- |
| DDNPNLPRLVRPE | rapidly formed signature peptide DDNP | – |
| DLGEENFKALVLI | – | within the initial two hours |
| FLQHKDDNPNLPRLVRPE [SIL signature peptide extended with five amino acids at both C- and N-termini] | mimicking the slow digestion kinetics of light HSA protein | – |
| LC*TVATLRETYGE | – | within the initial two hours |
| LQHKDDNPNLPRLVR [SIL signature peptide extended with three amino acids at both C- and N-termini] | mimicking the slow digestion kinetics of light HSA protein | – |
| RQIKKQTALVELVKHKPKA [SIL signature peptide extended with five amino acids at both C- and N-termini] | lower | – |

Results, then the substance that gave them:

| formation of signature peptide by trypsin digestion, rate or yield (in words) | time to plateau of signature peptide formed from C-terminal extended SIL peptide (in words) | Substance |
| --- | --- | --- |
| rapidly formed signature peptide DDNP | – | DDNPNLPRSAnYG [SIL-TCT DDNPNLPR] |
| – | within the initial two hours | DLGEENFKSAnYG [SIL-TCT DLGEENFK] |
| – | within the initial two hours | LC*TVATLRSAnYG [SIL-TCT LCTVATLR] |
| lower | – | TFLKKYLYEIARRHPYF (also: stable isotope label, residues not given here) [SIL-ExC5N5 YLYEIAR, SIL signature peptide extended with five amino acids at both C- and N-termini] |
